Source: patent publication US8785399B2, “Antibacterial peptides” (Spiderbiotech S.R.A., priority 2008, dated 2014)

Columns and labels:
[1] = system: Pseudomonas aeruginosa ATCC 27853; assay: MIC by broth microdilution, P. aeruginosa reference strain; format: cell-based; conditions: ATCC 27853
Experimental: (§1) Determination of MIC. MICs were determined in MHB by the broth microdilution methodology, according to CLSI procedure (formerly NCCLS, Ref. 11) by using final bacterial inocula of 1-5×10^5 CFU/mL. Assays were performed in sterile 96-well microtiter plates with round bottom wells (Corning Costar). Plates were incubated at 37° C. and read after 20-24 h. MIC was defined as the lowest drug concentration causing complete suppression of visible bacterial growth. All compounds were dissolved in (5% v/v DMSO).
(§2) These peptides were synthesized individually, in order to assay the activity of each sequence.

[2] = system: Klebsiella pneumoniae ATCC 10031; assay: MIC by broth microdilution, K. pneumoniae reference strain; format: cell-based; conditions: ATCC 10031
Experimental: as §1, §2

[3] = system: Staphylococcus aureus ATCC 25923
Experimental: as §1, §2

[4] = system: E. coli ATCC 25922; assay: MIC by broth microdilution, E. coli reference strain; format: cell-based, Escherichia coli; conditions: ATCC 25922
Experimental: as §1
All natural aminoacids have been divided into three groups based on their chemical-physical properties. A total amount of 27 minilibraries, each one containing six peptide in equimolar amounts, were obtained and assayed against E. coli ATCC 25922 as reference strain. MIC (Minimum Inhibitory Concentration) is defined as the lowest concentration inhibiting 100% of visible growth.

| Substance | MIC (ug/mL) P. aeruginosa [1] [µg/mL] | MIC (ug/mL) K. pneumoniae [2] [µg/mL] | MIC (ug/mL) S. aureus [3] [µg/mL] | MIC (ug/mL) E. coli [4] [µg/mL] |
| --- | --- | --- | --- | --- |
| H-IKKIRVRLSA-OH [ID3, H-I-KKIRVRLSA-OH] | 256 | 512 | 512 | 256 |
| H-LKKIRVRLSA-OH [ID4, H-L-KKIRVRLSA-OH] | 256 | 512 | >512 | 256 |
| H-QFKIRVRLSA-OH [ID8, H-Q-F-KIRVRLSA-OH] | 128 | >512 | >512 | 128 |
| H-QIKIRVRLSA-OH [ID9, H-Q-I-KIRVRLSA-OH] | >512 | 512 | >512 | 512 |
| H-QKKIRVRLSA-OH [ID1, H-QKKIRVRLSA-OH, reference compound] | >512 | >512 | – | – |
| H-QLKIRVRLSA-OH [ID10, H-Q-L-KIRVRLSA-OH] | 128 | >512 | >512 | 128 |
| H-QVKIRVRLSA-OH [ID11, H-Q-V-KIRVRLSA-OH] | 256 | >512 | >512 | 256 |
| H-QWKIRVRLSA-OH [ID12, H-Q-W-KIRVRLSA-OH] | 64 | >512 | >512 | 64 |
| H-QYKIRVRLSA-OH [ID13, H-Q-Y-KIRVRLSA-OH] | >512 | >512 | >512 | >256 |
| H-VKKIRVRLSA-OH [ID5, H-V-KKIRVRLSA-OH] | 512 | >512 | 512 | 512 |
| H-WKKIRVRLSA-OH [ID6, H-W-KKIRVRLSA-OH] | 128 | 256 | 512 | 64 to 128 |
